ChEMBL document CHEMBL1139533, “Structure-activity relationship studies of a series of antiviral and antibacterial aglycon derivatives of the glycopeptide antibiotics vancomycin, eremomycin, and dechloroeremomycin” (J Med Chem, 2005)
Values after ≈ are worked out from the molar mass of the structure shown.

What was measured:
[1] = system: Staphylococcus epidermidis; assay: Minimum inhibitory concentration against 533 Staphylococcus epidermidis; assay type: functional
[2] = system: C3H/3T3; assay: Minimal cytotoxic concentration to cause an alteration in C3H/3T3 cell line morphology; assay type: functional; conditions: Mus musculus
[3] = system: Enterococcus faecalis; assay: Minimum inhibitory concentration against 559 glycopeptide susceptible enterococci Enterococcus faecalis; assay type: functional
[4] = system: Enterococcus faecium; assay: Minimum inhibitory concentration against glycopeptide resistant enterococci 569 Enterococcus faecium; assay type: functional
[5] = system: Enterococcus faecalis; assay: Minimum inhibitory concentration against glycopeptide resistant enterococci 560 Enterococcus faecalis; assay type: functional
[6] = system: Enterococcus faecium; assay: Minimum inhibitory concentration against glycopeptide susceptible enterococci 568 Enterococcus faecium; assay type: functional
[7] = system: Staphylococcus haemolyticus; assay: Minimum inhibitory concentration against 602 Staphylococcus haemolyticus; assay type: functional
[8] = system: Staphylococcus aureus; assay: Minimum inhibitory concentration against glycopeptide intermediate-resistant 3797 Staphylococcus aureus; assay type: functional
[9] = system: Staphylococcus aureus; assay: Minimum inhibitory concentration against glycopeptide intermediate-resistant 3798 Staphylococcus aureus; assay type: functional
[10] = system: MOLT-4; assay: Cytostatic activity to the compound against Molt4/C8 cell line; assay type: functional, cell-based; conditions: Homo sapiens
[11] = system: Human immunodeficiency virus 2; assay: Effective concentration against human immunodeficiency virus type 2; assay type: functional, organism-based
[12] = system: Human immunodeficiency virus 1; assay: Effective concentration against human immunodeficiency virus type 1; assay type: functional, organism-based
[13] = system: CCRF-CEM; assay: Cytostatic activity to the compound against CEM cell line; assay type: functional, cell-based; conditions: Homo sapiens
[14] = system: L1210; assay: Cytostatic activity against L1210 cell line; assay type: functional, cell-based; conditions: Mus musculus
[15] = system: Moloney murine sarcoma virus; assay: Effective concentration against Moloney sarcoma virus; assay type: functional, organism-based, Viruses

Row | SMILES | MIC [1] | MCC [2] | MIC [3] | MIC [4] | MIC [5] | MIC [6] | MIC [7] | MIC [8] | MIC [9] | IC50 [10] | EC50 [11] | EC50 [12] | IC50 [13] | IC50 [14] | EC50 [15]
1 | CN[C@H](CC(C)C)C(=O)N[C@H]1C(=O)N[C@@H](CC(N)=O)C(=O)N[C@H]2C(=O)N[C@H]3C(=O)N[C@H](C(=O)N[C@H](C(=O)NC4C5CC6CC(C5)CC4C6)c4cc(O)cc(O)c4-c4cc3ccc4O)[C@H](O)c3ccc(cc3)Oc3cc2cc(c3O)Oc2ccc(cc2)[C@H]1O (stereo partly drawn) | 16 µg/mL (≈ 13.2 µM) | 100 µg/mL | 16 µg/mL (≈ 13.2 µM) | 32 µg/mL (≈ 26.5 µM) | 32 µg/mL (≈ 26.5 µM) | 8 µg/mL (≈ 6.62 µM) | 16 µg/mL (≈ 13.2 µM) | 16 µg/mL (≈ 13.2 µM) | 16 µg/mL (≈ 13.2 µM) | 185 µM | 21.7 µM | 8.5 µM | 185 µM | 129 µM | 14 µM
2 | NC(=O)C[C@@H]1NC(=O)[C@H](N)[C@H](O)c2ccc(c(Cl)c2)Oc2cc3cc(c2O)Oc2ccc(cc2Cl)[C@@H](O)[C@@H]2NC(=O)[C@H](NC(=O)[C@@H]3NC1=O)c1ccc(O)c(c1)-c1c(O)cc(O)cc1[C@@H](C(=O)NCC13CC4CC(CC(C4)C1)C3)NC2=O | > 32 µg/mL | ≥ 100 µg/mL | > 64 µg/mL | > 64 µg/mL | > 64 µg/mL | > 64 µg/mL | > 32 µg/mL | > 32 µg/mL | > 32 µg/mL | 178 µM | 30 µM | 20 µM | ≥ 250 µM | ≥ 250 µM | 27 µM
3 | NC(=O)C[C@@H]1NC(=O)[C@H](N)[C@H](O)c2ccc(c(Cl)c2)Oc2cc3cc(c2O)Oc2ccc(cc2)[C@@H](O)[C@@H]2NC(=O)[C@H](NC(=O)[C@@H]3NC1=O)c1ccc(O)c(c1)-c1c(O)cc(O)cc1[C@@H](C(=O)NCC13CC4CC(CC(C4)C1)C3)NC2=O | > 32 µg/mL | – | > 64 µg/mL | > 64 µg/mL | > 64 µg/mL | > 64 µg/mL | > 32 µg/mL | > 32 µg/mL | > 32 µg/mL | > 250 µM | 3.5 µM | 5.5 µM | > 250 µM | 175 µM | –
4 | NC(=O)C[C@@H]1NC(=O)[C@H](N)[C@H](O)c2ccc(cc2)Oc2cc3cc(c2O)Oc2ccc(cc2)[C@@H](O)[C@@H]2NC(=O)[C@H](NC(=O)[C@@H]3NC1=O)c1ccc(O)c(c1)-c1c(O)cc(O)cc1[C@@H](C(=O)NCC13CC4CC(CC(C4)C1)C3)NC2=O | > 32 µg/mL | 100 µg/mL | > 64 µg/mL | > 64 µg/mL | > 64 µg/mL | > 64 µg/mL | > 32 µg/mL | > 32 µg/mL | > 32 µg/mL | ≥ 250 µM | 25.7 µM | 30 µM | ≥ 250 µM | > 250 µM | 2.6 µM
5 | CN[C@H](CC(C)C)C(=O)N[C@H]1C(=O)N[C@@H](CC(N)=O)C(=O)N[C@H]2C(=O)N[C@H]3C(=O)N[C@H](C(=O)N[C@H](C(=O)NCC45CC6CC(CC(C6)C4)C5)c4cc(O)cc(O)c4-c4cc3ccc4O)[C@H](O)c3ccc(cc3)Oc3cc2cc(c3O)Oc2ccc(cc2)[C@H]1O | 8 µg/mL (≈ 6.54 µM) | 100 µg/mL | 8 µg/mL (≈ 6.54 µM) | 16 µg/mL (≈ 13.1 µM) | 16 µg/mL (≈ 13.1 µM) | 4 µg/mL (≈ 3.27 µM) | 16 µg/mL (≈ 13.1 µM) | 8 µg/mL (≈ 6.54 µM) | 16 µg/mL (≈ 13.1 µM) | 44 µM | 12 µM | 8.5 µM | 165 µM | 58 µM | 11 µM
6 | CN[C@H](CC(C)C)C(=O)N[C@H]1C(=O)N[C@@H](CC(N)=O)C(=O)N[C@H]2C(=O)N[C@H]3C(=O)N[C@H](C(=O)N[C@H](C(=O)NCC45CC6CC(CC(C6)C4)C5)c4cc(O)cc(O)c4-c4cc3ccc4O)[C@H](O)c3ccc(c(Cl)c3)Oc3cc2cc(c3O)Oc2ccc(cc2Cl)[C@H]1O | 2 µg/mL (≈ 1.55 µM) | ≥ 100 µg/mL | 1 µg/mL (≈ 0.774 µM) | 16 µg/mL (≈ 12.4 µM) | 16 µg/mL (≈ 12.4 µM) | 2 µg/mL (≈ 1.55 µM) | 2 µg/mL (≈ 1.55 µM) | 2 µg/mL (≈ 1.55 µM) | 2 µg/mL (≈ 1.55 µM) | – | – | – | – | – | –
7 | CN[C@H](CC(C)C)C(=O)N[C@H]1C(=O)N[C@@H](CC(N)=O)C(=O)N[C@H]2C(=O)N[C@H]3C(=O)N[C@H](C(=O)N[C@H](C(=O)O)c4cc(O)cc(O)c4-c4cc3ccc4O)[C@H](O)c3ccc(cc3)Oc3cc2cc(c3O)Oc2ccc(cc2Cl)[C@H]1O | 32 µg/mL (≈ 28.8 µM) | > 100 µg/mL | 16 µg/mL (≈ 14.4 µM) | > 128 µg/mL | > 128 µg/mL | 32 µg/mL (≈ 28.8 µM) | 16 µg/mL (≈ 14.4 µM) | > 64 µg/mL | > 64 µg/mL | > 500 µM | ≥ 250 µM | 50 µM | > 500 µM | > 500 µM | > 100 µM
8 | CN[C@H](CC(C)C)C(=O)N[C@H]1C(=O)N[C@@H](CC(N)=O)C(=O)N[C@H]2C(=O)N[C@H]3C(=O)N[C@H](C(=O)N[C@H](C(=O)NCCCCCCCCCCN)c4cc(O)cc(O)c4-c4cc3ccc4O)[C@H](O)c3ccc(c(Cl)c3)Oc3cc2cc(c3O)Oc2ccc(cc2Cl)[C@H]1O | – | – | – | – | – | – | – | – | – | 228 µM | 18.3 µM | 2.5 µM | ≥ 250 µM | > 250 µM | 5 µM
